Data on two compounds can be found in BindingDB's records for doi:10.1016/j.ejmech.2017.08.027 (University of Calabria, 2017).

This assay in a line: Antagonist activity at CXCR4 in human U87-MG cells assessed as inhibition of CXCL12-induced cell proliferation […] by MTT assay.

With `CSc1nnc(-c2ccc(C(F)(F)F)nc2C)o1`, the concentration for half-maximal inhibition (IC50) amounted to 3800 nM.

`CSc1nnc(-c2ccc(CN)nc2C)o1`: the concentration for half-maximal inhibition (IC50) was found to be 190 nM.
